Data on 19 compounds can be found in patent publication US8906852B2 (MethylGene Inc., priority 2010, dated 2014).

The term IC50 denotes the concentration that inhibits the measured activity by half.

Structures are written as SMILES.

T1 sequence (P35968 806-1356): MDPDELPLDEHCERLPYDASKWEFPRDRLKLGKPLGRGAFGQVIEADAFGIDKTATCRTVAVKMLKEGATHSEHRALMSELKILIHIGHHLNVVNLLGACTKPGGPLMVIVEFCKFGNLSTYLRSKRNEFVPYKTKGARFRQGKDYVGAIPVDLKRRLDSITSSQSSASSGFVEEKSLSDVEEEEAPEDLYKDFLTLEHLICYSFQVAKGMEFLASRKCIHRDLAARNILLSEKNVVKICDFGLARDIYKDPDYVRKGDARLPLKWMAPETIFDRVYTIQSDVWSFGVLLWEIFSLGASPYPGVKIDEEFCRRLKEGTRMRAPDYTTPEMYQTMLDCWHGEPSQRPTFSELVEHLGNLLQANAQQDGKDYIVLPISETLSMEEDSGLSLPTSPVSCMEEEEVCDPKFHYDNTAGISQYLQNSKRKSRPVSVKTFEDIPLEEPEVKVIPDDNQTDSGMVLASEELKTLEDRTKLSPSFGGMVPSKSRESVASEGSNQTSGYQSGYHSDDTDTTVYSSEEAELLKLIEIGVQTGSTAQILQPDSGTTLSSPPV

This assay has as its target T1, VEGFR/KDR (Homo sapiens, UniProt P35968).
T1 construct: made in house; host or cells: Sf9 cells (Spodoptera frugiperda), baculovirus
As to the kind of experiment: VEGFR/KDR kinase inhibition, DELFIA assay. The format is biochemical. Particulars: ATP 0.6 uM (2x Km), enzyme 5 nM. The method in brief:
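Enzyme (5 nM) pre-incubated 4 min on ice with inhibitor and Mg-ATP (0.6 uM, 2× Km), then reacted 10-30 min at 30° C on immobilized poly(Glu4,Tyr). EDTA-quenched phosphotyrosine detected with Europium-labeled antibody by time-resolved fluorescence; IC50 from concentration series.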
With `O=C(O)CCCCCCC(=O)N1CCN(Cc2ccc(-c3cc4nccc(Oc5ccc(NC(=O)NC6CC6)cc5F)c4s3)nc2)CC1` [Compound 544], the IC50 was less than 50 nM. As for `O=C(Nc1ccc(Oc2ccnc3cc(-c4ccc(CN5CCN(C(=O)CCO)CC5)cn4)sc23)c(F)c1)NC1CC1` [Compound 545], the figure is less than 50 nM.

As for `O=C(O)CC[C@@H](O)C(=O)N1CCN(Cc2ccc(-c3cc4nccc(Oc5ccc(NC(=O)NC6CC6)cc5F)c4s3)nc2)CC1` [Compound 546], the 50% inhibitory concentration (IC50) is less than 50 nM. For the compound `CN(C)C/C=C/C(=O)N1CCN(Cc2ccc(-c3cc4nccc(Oc5ccc(NC(=O)NC6CC6)cc5F)c4s3)nc2)CC1` [Compound 547, (E)-1-cyclopropyl-3-(4-(2-(5-((4-(4-(dimethylamino)but-2-enoyl)piperazin-1-yl)methyl)pyridin-2-yl)thieno[3,2-b]pyridin-7-yloxy)-3-fluorophenyl)urea], the IC50 was less than 50 nM.

As to `CC1=C(/C=C/C(C)=C/C=C/C(C)=C/C(=O)N2CCN(Cc3ccc(-c4cc5nccc(Oc6ccc(NC(=O)NC7CC7)cc6F)c5s4)nc3)CC2)C(C)(C)CCC1` [Compound 548, 1-cyclopropyl-3-(4-(2-(5-((4-((2E,4E,6E,8E)-3,7-dimethyl-9-(2,6,6-trimethylcyclohex-1-enyl)nona-2,4,6,8-tetraenoyl)piperazin-1-yl)methyl)pyridin-2-yl)thieno[3,2-b]pyridin-7-yloxy)-3-fluorophenyl)urea], the IC50 was not below 250 nM. The compound `CN(C)CCNCC(=O)N1CCN(Cc2ccc(-c3cc4nccc(Oc5ccc(NC(=O)NC6CC6)cc5F)c4s3)nc2)CC1` [Compound 549, 1-cyclopropyl-3-(4-(2-(5-((4-(2-(2-(dimethylamino)ethylamino)acetyl)piperazin-1-yl)methyl)pyridin-2-yl)thieno[3,2-b]pyridin-7-yloxy)-3-fluorophenyl)urea] yielded an IC50 of less than 50 nM. `O=C(Nc1ccc(Oc2ccnc3cc(-c4ccc(C(=O)N5CCNCC5)cn4)sc23)c(F)c1)NC1CC1` [Compound 550] gave an IC50 of less than 50 nM. As for `CCNC(=O)N1CCN(Cc2ccc(-c3cc4nccc(Oc5ccc(NC(=O)NC6CC6)cc5F)c4s3)nc2)CC1` [Compound 551], the figure is less than 50 nM; as for `CNC(=O)N1CCN(Cc2ccc(-c3cc4nccc(Oc5ccc(NC(=O)NC6CC6)cc5F)c4s3)nc2)CC1` [Compound 552], less than 50 nM; as for `CCNC(=O)N1CCN(Cc2ccc(-c3cc4nccc(Oc5ccc(NC(=O)NC6CC6)cc5F)c4s3)nc2)C[C@@H]1C` [Compound 556], less than 50 nM. As for `CCNC(=O)N1CCN(C(=O)c2ccc(-c3cc4nccc(Oc5ccc(NC(=O)NC6CC6)cc5F)c4s3)nc2)CC1` [Compound 557], the figure is less than 50 nM; as for `O=C(O)CNC(=O)N1CCN(Cc2ccc(-c3cc4nccc(Oc5ccc(NC(=O)NC6CC6)cc5F)c4s3)nc2)CC1` [Compound 558], less than 50 nM. `O=C(O)CCNC(=O)N1CCN(Cc2ccc(-c3cc4nccc(Oc5ccc(NC(=O)NC6CC6)cc5F)c4s3)nc2)CC1` [Compound 559] returned an IC50 of less than 50 nM.

Take `CC(O)CN1CCN(Cc2ccc(-c3cc4nccc(Oc5ccc(NC(=O)NC6CC6)cc5F)c4s3)nc2)CC1` (stereo not shown) [Compound 562]: the IC50 was less than 50 nM. As for `CC(C)(O)CN1CCN(Cc2ccc(-c3cc4nccc(Oc5ccc(NC(=O)NC6CC6)cc5F)c4s3)nc2)CC1` [Compound 570], the figure is less than 50 nM; as for `C[C@H](CN1CCN(Cc2ccc(-c3cc4nccc(Oc5ccc(NC(=O)NC6CC6)cc5F)c4s3)nc2)CC1)C(=O)O` [Compound 574], less than 50 nM. `CC(C)(CN1CCN(Cc2ccc(-c3cc4nccc(Oc5ccc(NC(=O)NC6CC6)cc5F)c4s3)nc2)CC1)C(=O)O` [Compound 575]: the IC50 was less than 50 nM.

The compound `CC(C)(CN1CCN(C(=O)c2ccc(-c3cc4nccc(Oc5ccc(NC(=O)NC6CC6)cc5F)c4s3)nc2)CC1)C(=O)O` [Compound 576] returned an IC50 of less than 50 nM.

`COC(=O)CCN1CCN(C(=O)c2ccc(-c3cc4nccc(Oc5ccc(NC(=O)NC6CC6)cc5F)c4s3)nc2)CC1` [Compound 580] registered an IC50 of less than 50 nM.
